Assay results reported in patent US6875775B2, “Triphenylalkene derivatives and their use as selective estrogen receptor modulators” (Hormos Medical Oy LTD, priority 1999, dated 2005).
Like-named read-outs stand apart in the source and are kept apart here.

Columns and labels:
MCF-7 cells = assay: cells; format: cell-based; settings: for Maximal Cell Kill (% fraction of dead cells) / cytotoxicity at 10 µM: 10 μmol/l; for Maximal Agonism (% of E2) / Emax: maximal growth stimulus at any concentration, 4 days; for cytotoxicity at 10 µM / inhibition at 1 µM / Emax: Homo sapiens, MCF7, 96 h; for cytotoxicity at 10 µM: read-out: Maximal Cell Kill (% fraction of dead cells); for inhibition at 1 µM: read-out: Antagonism at 1 μM (% of full antagonism); for Emax: read-out: Maximal Agonism (% of E2); for Killing of MCF-7 cells at the highest investigated concentration (in words): 10 μM, compounds with weak hormonal activity
Experimental: Evaluation of Estrogenic and Antiestrogenic Properties of Compounds in MCF-7 Cell Growth Experiments in Vitro
For experiments involving hormone or anti-hormone treatment, the cells in exponential growth phase were precultivated in the absence of estradiol for one day. […] After the incubation period the medium was removed. The exposure to study drugs was started immediately by adding fresh medium with 5% stripped serum. Half of the cells were grown with estradiol, half without estradiol. Study compounds (dissolved in ethanol in 0.01 M concentration and diluted with the growth medium as appropriate) were added. The final concentrations of the compounds were 1, 10, and 100 nM, and 1 and 10 μM. The cells were incubated for four days.
This method allows evaluation of estrogenicity based on the ability of the compounds to stimulate the growth of the estrogen-dependent cells in the absence of estradiol.
Estrogenicity was estimated by comparing the maximal growth stimulus (at any concentration) of study compound as percent from growth stimulus by estradiol (100% stimulus). […] At high concentrations molecules may also show toxicity. Toxicity was estimated as the fraction of dead cells (i.e. 100% means that all cells have died during the exposure).

[1] = Overall hormonal profile summarised from Tables 2, 3 and 4
[2] = system: DMBA-induced rat mammary gland cancer; assay: Antitumor activity in DMBA-induced rat mammary gland cancer model; format: in vivo; settings: 3 mg/kg p.o. daily for 5 weeks
Experimental: Estimation of Antitumor Activity in Vivo
Antitumor activity was estimated by using DMBA (dimethylbenz[a] anthracene) model. One single peroral dose of DMBA (12 mg) initiates mammary gland carcinogenesis. New compounds were administered for 5 weeks when palpable tumors appeared. Size of the tumors and number of new tumors were carefully estimated once a week until termination. The model has been described in detail by Kangas et al, 1986. The growth of the tumors was measured once a week. All tumors were classified according to their growth properties to progressing, stable and regressing ones. Disappeared tumors were separately calculated. The tumors were considered to be progressing, if the tumor volume grew more than 8-fold during the 5 weeks dosing period, and regressing if the tumor volume decreased to one fourth or less from the volume in the beginning. If tumor volume changed less or remained unchanged, the tumors were considered to be stable.

SMILES | cytotoxicity at 10 µM (MCF-7 cells; With estradiol (E2)) | cytotoxicity at 10 µM (MCF-7 cells; Without estradiol (E2)) | inhibition at 1 µM (MCF-7 cells; With estradiol (E2)) | Emax (MCF-7 cells; Without estradiol (E2)) | also measured
CCCCN(C)C(=O)CCCCCCCCCC[C@@H]1Cc2cc(O)ccc2[C@H]2CC[C@]3(C)[C@@H](O)CC[C@H]3[C@H]12 [ICI 164,384, reference compound] |  |  |  |  | Antagonism at 1 μM (% of full antagonism) (MCF-7 cells; With estradiol (E2)): 100 % of full antagonism; Maximal Cell Kill (% fraction of dead cells) (MCF-7 cells; With estradiol (E2)): 100 % fraction of dead cells; Maximal Cell Kill (% fraction of dead cells) (MCF-7 cells; Without estradiol (E2)): 100 % fraction of dead cells; Maximal Agonism (% of E2) (MCF-7 cells; Without estradiol (E2)): 9 % of E2
ClCCOc1ccc(/C(=C(/CCCl)c2ccc(Cl)cc2)c2ccc(Cl)cc2)cc1 [No. 6, (E)-4-Chloro-1-[4-(2-chloroethoxy)phenyl]-1,2-bis(4-chlorophenyl)-but-1-ene] | 40% | 47% | 16% | 0% | 
OCC(O)COc1ccc(/C(=C(/CCCl)c2ccccc2)c2ccc(Cl)cc2)cc1 (stereo not shown) [No. 10, (E)-3-{4-[4-Chloro-1-(4-chlorophenyl)-2-phenyl-but-1-enyl]phenoxy}propane-1,2-diol] | 35% | 7% | 0% | 34% | Estrogenic and antiestrogenic action (in words) [1]: weak estrogenic and no antiestrogenic action
ClCCOCCOc1ccc(/C(=C(/CCCl)c2ccccc2)c2ccc(Cl)cc2)cc1 [No. 14] |  |  |  |  | Antagonism at 1 μM (% of full antagonism) (MCF-7 cells; With estradiol (E2)): 27 % of full antagonism; Maximal Cell Kill (% fraction of dead cells) (MCF-7 cells; With estradiol (E2)): 57 % fraction of dead cells; Maximal Cell Kill (% fraction of dead cells) (MCF-7 cells; Without estradiol (E2)): 10 % fraction of dead cells; Maximal Agonism (% of E2) (MCF-7 cells; Without estradiol (E2)): 12 % of E2
Fc1ccc(/C(=C(\CCCl)c2ccccc2)c2ccc(OCCOCCCl)cc2)cc1 [No. 15] |  |  |  |  | Antagonism at 1 μM (% of full antagonism) (MCF-7 cells; With estradiol (E2)): 5 % of full antagonism; Maximal Cell Kill (% fraction of dead cells) (MCF-7 cells; With estradiol (E2)): 9 % fraction of dead cells; Maximal Cell Kill (% fraction of dead cells) (MCF-7 cells; Without estradiol (E2)): 82 % fraction of dead cells; Maximal Agonism (% of E2) (MCF-7 cells; Without estradiol (E2)): 74 % of E2
OCCOc1ccc(C(=C(CCCl)c2ccccc2)c2ccc(OCCO)cc2)cc1 [No. 16, 2-(4-{4-Chloro-1-[4-(2-hydroxyethoxy)phenyl]-2-phenyl-but-1-enyl}phenoxy)1-ethanol] |  |  |  |  | Killing of MCF-7 cells at the highest investigated concentration (in words) (MCF-7 cells): kill MCF-7 cells (human breast cancer cells) effectively
ClCC/C(=C(\c1ccccc1)c1ccc(OCCn2ccnc2)cc1)c1ccccc1 [No. 21, (Z)-1-{2-[4-(4-Chloro-1,2-diphenyl-but-1-enyl)phenoxy]ethyl}-1H-imidazole] | 91% | 80% | 0% | 5% | 
CN(CCO)CCOc1ccc(/C(=C(/CCCl)c2ccccc2)c2ccccc2)cc1 [No. 22, (Z)-2-({2-[4-(4-Chloro-1,2-diphenyl-but-1-enyl)phenoxy]ethyl}methylamino)ethanol] | 41% | 15% | 12% | 1% | 
CN(C)CCOc1ccc(/C(=C(/CCCl)c2ccc(F)cc2)c2ccccc2)cc1 [No. 25, (Z)-(2-{4-[4-Chloro-2-(4-fluorophenyl)-1-phenylbut-1-enyl]phenoxy}ethyl)-dimethylamine] |  |  |  |  | Estrogenic and antiestrogenic action (in words) [1]: weak estrogenic and no antiestrogenic action
COc1ccc(/C(=C(\CCCl)c2ccc(Cl)cc2)c2ccc(OCCN(C)C)cc2)cc1 [No. 26, (Z)-(2-{4-[4-Chloro-2-(4-chlorophenyl)-1-(4-methoxyphenyl)but-1-enyl]phenoxy}-ethyl)dimethylamine] |  |  |  |  | Killing of MCF-7 cells at the highest investigated concentration (in words) (MCF-7 cells): kill MCF-7 cells (human breast cancer cells) effectively
COc1ccc(/C(=C(/CCCl)c2ccc(Cl)cc2)c2ccc(OCCN(C)C)cc2)cc1 [No. 27, (E)-(2-{4-[4-Chloro-2-(4-chlorophenyl)-1-(4-methoxyphenyl)but-1-enyl]phenoxy}-ethyl)dimethylamine] |  |  |  |  | Killing of MCF-7 cells at the highest investigated concentration (in words) (MCF-7 cells): kill MCF-7 cells (human breast cancer cells) effectively
COc1cccc(/C(CCCl)=C(/c2ccccc2)c2ccc(OCCN3CCCCC3)cc2)c1 [No. 28, (Z)-1-(2-{4-[4-Chloro-2-(3-methoxyphenyl)-1-phenylbut-1-enyl]phenoxy}-ethyl)piperidine] | 92% | 86% | 18% | 3% | 
COc1ccccc1/C(CCCl)=C(/c1ccccc1)c1ccc(OCCN2CCCCC2)cc1 [No. 30, (Z)-1-(2-{4-[4-Chloro-2-(2-methoxyphenyl)-1-phenylbut-1-enyl]phenoxy}-ethyl)piperidine] | 92% | 91% | 4% | 5% | 
OCCCOc1ccc(/C(=C(/CCCl)c2ccccc2)c2ccccc2)cc1 [No. 35, (Z)-3-[4-(4-Chloro-1,2-diphenylbut-1-enyl)phenoxy]propan-1-ol] |  |  |  | 45% | 
ClCC/C(=C(\c1ccccc1)c1ccc(OCCN2CCCCC2)cc1)c1ccccc1Cl [No. 38, (Z)-1-(2-{4-[4-Chloro-2-(2-chlorophenyl)-1-phenylbut-1-enyl]phenoxy}-ethyl)piperidine] | 100% | 99% | 68% | 0% | 
Oc1cccc(/C(=C(\CCCl)c2ccccc2)c2ccc(OCCn3ccnc3)cc2)c1 [No. 39, (E)-3-{4-Chloro-1-[4-(2-imidazol-1-yl-ethoxy)phenyl]-2-phenyl-but-1-enyl}-phenol] | 78% | 68% | 17% | 0% | Killing of MCF-7 cells at the highest investigated concentration (in words) (MCF-7 cells): kill MCF-7 cells (human breast cancer cells) effectively
Oc1cccc(/C(=C(/CCCl)c2ccccc2)c2ccc(OCCn3ccnc3)cc2)c1 [No. 40, (Z)-3-{4-Chloro-1-[4-(2-imidazol-1-yl-ethoxy)phenyl]-2-phenyl-but-1-enyl}-phenol] | 46% | 63% | 3% | 0% | Killing of MCF-7 cells at the highest investigated concentration (in words) (MCF-7 cells): kill MCF-7 cells (human breast cancer cells) effectively
OCCNc1ccc(/C(=C(/CCCl)c2ccccc2)c2ccccc2)cc1 [No. 41, (Z)-2-[4-(4-Chloro-1,2-diphenyl-but-1-enyl)phenylamino]ethanol] | 47% | 0% | 10% | 54% | 
CCC(O)(CC)COc1ccc(/C(=C(/CCCl)c2ccccc2)c2ccccc2)cc1 [No. 45, (Z)-3-[4-(4-Chloro-1,2-diphenylbut-1-enyl)phenoxymethyl]pentan-3-ol] | 19% | 6% | 3% | 15% | 
CCC(CO)Oc1ccc(/C(=C(/CCCl)c2ccccc2)c2ccccc2)cc1 (stereo not shown) [No. 46, (Z)-2-[4-(4-Chloro-1,2-diphenylbut-1-enyl)phenoxy]butan-1-ol] | 51% | 15% | 23% | 18% | 
CC/C(=C(\c1ccccc1)c1ccc(OCCN(C)C)cc1)c1ccccc1 [Tamoxifen, reference compound] |  |  |  |  | Disappeared tumors (per cent of total tumor number) [2]: 0%; Growing tumors (per cent of total tumor number) [2]: 36%; Regressing tumors (per cent of total tumor number) [2]: 8%; Stable tumors (per cent of total tumor number) [2]: 56%
CN(C)CCOc1ccc(/C(=C(/CCCl)c2ccccc2)c2ccccc2)cc1 [Toremifene, reference compound] |  |  |  |  | Disappeared tumors (per cent of total tumor number) [2]: 10%; Growing tumors (per cent of total tumor number) [2]: 31%; Regressing tumors (per cent of total tumor number) [2]: 11%; Stable tumors (per cent of total tumor number) [2]: 51%
